Earlier results on 1 compound are cited in patent publication US10639299B2, “Calcium sensing receptors, ligands, compositions, and methods of use” (Georgia State University Research Foundation, Inc., priority 2016, dated 2020).

Structures are written as SMILES.

The target in one data set is T1, rat CaSR (Rattus norvegicus, UniProt P48442).
T1 construct: host or cells: CHO cells, transient
T1 sequence (P48442 20-1079): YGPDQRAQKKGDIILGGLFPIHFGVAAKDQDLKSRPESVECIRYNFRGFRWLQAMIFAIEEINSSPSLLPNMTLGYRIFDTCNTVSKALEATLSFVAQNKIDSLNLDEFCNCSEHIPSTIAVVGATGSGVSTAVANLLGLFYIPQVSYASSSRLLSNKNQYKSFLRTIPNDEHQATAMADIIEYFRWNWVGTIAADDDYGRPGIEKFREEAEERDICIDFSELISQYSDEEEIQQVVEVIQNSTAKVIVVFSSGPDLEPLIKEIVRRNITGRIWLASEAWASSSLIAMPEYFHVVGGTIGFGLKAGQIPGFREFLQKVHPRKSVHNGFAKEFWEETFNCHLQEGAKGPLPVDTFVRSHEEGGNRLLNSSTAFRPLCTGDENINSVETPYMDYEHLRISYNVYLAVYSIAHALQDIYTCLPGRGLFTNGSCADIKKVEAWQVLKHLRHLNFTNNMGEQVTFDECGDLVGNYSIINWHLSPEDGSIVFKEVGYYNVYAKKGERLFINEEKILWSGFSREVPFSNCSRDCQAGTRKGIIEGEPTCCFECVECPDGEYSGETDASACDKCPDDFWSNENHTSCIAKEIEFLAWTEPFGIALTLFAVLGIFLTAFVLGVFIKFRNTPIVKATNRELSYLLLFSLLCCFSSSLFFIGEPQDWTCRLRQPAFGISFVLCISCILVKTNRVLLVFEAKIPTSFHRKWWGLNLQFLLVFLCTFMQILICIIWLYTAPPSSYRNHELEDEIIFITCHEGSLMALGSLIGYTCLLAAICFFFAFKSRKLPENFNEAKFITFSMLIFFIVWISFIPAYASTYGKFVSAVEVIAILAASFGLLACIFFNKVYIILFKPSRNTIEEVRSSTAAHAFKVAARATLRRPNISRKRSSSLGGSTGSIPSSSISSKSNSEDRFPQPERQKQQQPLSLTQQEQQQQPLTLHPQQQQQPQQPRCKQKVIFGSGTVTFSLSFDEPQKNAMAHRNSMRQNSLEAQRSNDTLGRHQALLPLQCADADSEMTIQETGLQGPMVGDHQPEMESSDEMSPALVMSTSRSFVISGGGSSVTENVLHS
The note with it: CHO cells; cited from earlier work.

In data set [1] the target is T2, CaSR (Homo sapiens, UniProt P41180).
T2 sequence (P41180 20-1078): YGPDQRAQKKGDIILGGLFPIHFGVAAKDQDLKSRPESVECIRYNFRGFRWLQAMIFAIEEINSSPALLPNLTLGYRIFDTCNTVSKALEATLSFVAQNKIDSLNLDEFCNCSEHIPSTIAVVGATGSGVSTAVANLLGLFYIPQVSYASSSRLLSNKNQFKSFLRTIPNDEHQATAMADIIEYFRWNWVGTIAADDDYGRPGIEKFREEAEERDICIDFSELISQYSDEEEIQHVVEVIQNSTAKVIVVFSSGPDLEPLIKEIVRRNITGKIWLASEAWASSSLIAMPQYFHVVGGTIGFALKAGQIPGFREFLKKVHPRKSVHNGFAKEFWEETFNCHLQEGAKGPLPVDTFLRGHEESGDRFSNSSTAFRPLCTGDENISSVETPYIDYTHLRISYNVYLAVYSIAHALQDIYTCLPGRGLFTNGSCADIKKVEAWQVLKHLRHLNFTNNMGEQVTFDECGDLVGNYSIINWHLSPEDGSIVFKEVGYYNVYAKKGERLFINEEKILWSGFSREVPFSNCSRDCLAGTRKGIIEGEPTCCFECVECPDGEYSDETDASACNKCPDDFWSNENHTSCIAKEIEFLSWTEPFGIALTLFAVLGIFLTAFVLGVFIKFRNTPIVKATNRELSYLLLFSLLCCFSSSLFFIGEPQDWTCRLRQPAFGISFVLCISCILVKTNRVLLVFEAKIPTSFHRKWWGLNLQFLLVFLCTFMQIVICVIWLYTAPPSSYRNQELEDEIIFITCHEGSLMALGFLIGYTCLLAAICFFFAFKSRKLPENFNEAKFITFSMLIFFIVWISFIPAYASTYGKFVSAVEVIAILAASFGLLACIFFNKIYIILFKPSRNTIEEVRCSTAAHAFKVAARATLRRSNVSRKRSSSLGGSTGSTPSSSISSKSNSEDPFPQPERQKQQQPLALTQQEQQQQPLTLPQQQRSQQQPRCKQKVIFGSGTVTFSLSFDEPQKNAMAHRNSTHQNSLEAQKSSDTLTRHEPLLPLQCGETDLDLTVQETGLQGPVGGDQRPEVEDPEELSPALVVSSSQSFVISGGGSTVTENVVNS
The arrangement: host or cells: HEK cells, transient. The note with it: HEK cells, in the presence of 150 mM NaCl; read-out: EC50 for intracellular calcium responses; cited from earlier work. (In general: A change in cytosolic calcium serves as a functional read-out for many receptors and channels.)

The target of data set [2] is T3, CaSR (Bos taurus, UniProt P35384).
T3 construct: host or cells: X. laevis oocytes
T3 sequence (P35384 20-1085): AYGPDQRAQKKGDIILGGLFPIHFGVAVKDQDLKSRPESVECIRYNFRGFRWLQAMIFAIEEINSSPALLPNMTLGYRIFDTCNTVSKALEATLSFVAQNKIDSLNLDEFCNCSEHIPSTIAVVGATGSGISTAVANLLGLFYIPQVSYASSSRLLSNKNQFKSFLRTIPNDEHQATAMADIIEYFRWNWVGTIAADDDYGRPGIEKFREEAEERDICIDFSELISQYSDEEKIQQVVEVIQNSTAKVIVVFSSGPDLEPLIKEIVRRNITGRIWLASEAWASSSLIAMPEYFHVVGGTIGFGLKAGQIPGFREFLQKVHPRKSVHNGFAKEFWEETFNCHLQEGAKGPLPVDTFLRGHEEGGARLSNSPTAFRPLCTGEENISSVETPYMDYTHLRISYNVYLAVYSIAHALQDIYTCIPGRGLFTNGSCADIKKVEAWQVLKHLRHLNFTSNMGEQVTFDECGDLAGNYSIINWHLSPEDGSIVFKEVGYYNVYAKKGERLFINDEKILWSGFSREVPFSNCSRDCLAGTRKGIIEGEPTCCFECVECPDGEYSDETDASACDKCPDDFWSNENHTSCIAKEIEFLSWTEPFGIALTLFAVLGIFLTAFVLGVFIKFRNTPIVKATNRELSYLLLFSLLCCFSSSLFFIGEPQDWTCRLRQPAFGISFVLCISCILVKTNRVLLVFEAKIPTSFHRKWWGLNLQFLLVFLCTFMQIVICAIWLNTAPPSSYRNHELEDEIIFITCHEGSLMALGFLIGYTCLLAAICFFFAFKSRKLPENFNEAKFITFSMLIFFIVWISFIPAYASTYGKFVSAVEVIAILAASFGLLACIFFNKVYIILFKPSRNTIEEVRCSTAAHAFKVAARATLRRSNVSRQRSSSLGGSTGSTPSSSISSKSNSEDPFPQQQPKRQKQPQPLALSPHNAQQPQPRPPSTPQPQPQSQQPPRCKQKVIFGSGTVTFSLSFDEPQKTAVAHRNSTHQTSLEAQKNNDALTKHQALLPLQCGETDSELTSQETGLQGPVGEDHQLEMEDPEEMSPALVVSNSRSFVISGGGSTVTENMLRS
The note with it: X. laevis oocytes; cited from earlier work.

A word on the EC50: it is the concentration that produces a half-maximal response. As for `[Mg+2]` [Mg^2+, magnesium], the “EC50 relative to that of Ca^2+” value on rat CaSR is reported as “about twice”. Further, the results for the concentration giving a half-maximal response (EC50) at CaSR [1] and on CaSR [2] were 15 to 20 mM and 10 mM, respectively.
